In assay [1] the target is Poly [ADP-ribose] polymerase 1 (Homo sapiens, UniProt P09874). The assay can be described thus: Inhibition of human recombinant Poly (ADP-ribose) polymerase 1.
Assay [2] can be described thus: Effective concentration was determined from in vitro cellular peroxide toxicity assay. It counts as functional.

For orientation: IC50 means the concentration at which inhibition is half-maximal. By EC50 is commonly meant the concentration needed to bring the measured effect to its halfway point. Read a high EC50 as a less potent agent.

Sequence of Poly [ADP-ribose] polymerase 1 (P09874 whole entry): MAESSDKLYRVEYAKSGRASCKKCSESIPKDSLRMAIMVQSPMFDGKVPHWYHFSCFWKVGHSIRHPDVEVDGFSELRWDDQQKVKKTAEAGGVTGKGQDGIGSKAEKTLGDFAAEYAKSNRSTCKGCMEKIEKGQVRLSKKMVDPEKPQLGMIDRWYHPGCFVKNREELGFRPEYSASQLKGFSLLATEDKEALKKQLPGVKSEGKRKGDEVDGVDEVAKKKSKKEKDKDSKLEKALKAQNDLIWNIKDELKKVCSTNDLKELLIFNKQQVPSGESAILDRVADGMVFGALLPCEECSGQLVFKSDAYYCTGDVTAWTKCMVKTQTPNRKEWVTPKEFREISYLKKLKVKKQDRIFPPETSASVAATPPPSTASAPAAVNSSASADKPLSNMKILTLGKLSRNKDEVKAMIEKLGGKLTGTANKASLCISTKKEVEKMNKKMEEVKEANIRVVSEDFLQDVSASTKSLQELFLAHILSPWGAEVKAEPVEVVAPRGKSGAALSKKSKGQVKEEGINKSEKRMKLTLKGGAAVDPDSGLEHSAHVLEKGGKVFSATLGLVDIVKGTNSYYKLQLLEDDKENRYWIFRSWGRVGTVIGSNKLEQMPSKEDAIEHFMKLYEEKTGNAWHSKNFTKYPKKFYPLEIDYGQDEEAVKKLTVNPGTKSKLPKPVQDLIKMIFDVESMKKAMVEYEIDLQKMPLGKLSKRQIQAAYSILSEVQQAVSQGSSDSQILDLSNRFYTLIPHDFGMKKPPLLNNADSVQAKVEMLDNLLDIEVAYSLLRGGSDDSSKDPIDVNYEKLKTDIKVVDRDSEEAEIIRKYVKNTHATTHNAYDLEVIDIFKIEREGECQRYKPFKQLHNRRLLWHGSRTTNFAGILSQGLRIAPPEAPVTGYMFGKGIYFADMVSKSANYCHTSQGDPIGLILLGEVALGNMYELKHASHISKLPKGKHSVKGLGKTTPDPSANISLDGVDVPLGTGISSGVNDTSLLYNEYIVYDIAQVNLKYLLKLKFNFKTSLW

`O=c1[nH]c2c(c3ccccc13)CN(S(=O)(=O)CCN1CCC(N3CCCC3)CC1)CC2`: in assay [1], the IC50 worked out at 357 nM. Turning to `O=C(CN1CCN(C2CCCC2)CC1)N1CCc2c(nc(O)c3ccccc23)C1`, the IC50 in assay [1] is 116 nM. Further, the EC50 in assay [2] amounted to 690 nM. Regarding `N[C@@H](CCC(=O)N1CCc2nc(O)c3ccccc3c2C1)C(=O)O`, in assay [1], the IC50 turned out to be 89 nM. The EC50 in assay [2] was determined as 30000 nM. As to `O=C(CCN1CCCCC1)N1CCc2[nH]c(=O)c3cc(F)ccc3c2C1`, the IC50 in assay [1] was determined as 25 nM. In assay [2], this compound returned an EC50 of 30 nM. In the case of `O=C(CCN1CCCCC1)N1CCc2c(nc(O)c3ccccc23)C1`, in assay [1], the IC50 worked out at 240 nM. On to `Oc1nc2c(c3ccccc13)CCCC2`, for which the IC50 in assay [1] was found to be 167 nM. In the case of `O=C(CCN1CCC(N2CCCC2)CC1)N1CCc2nc(O)c3cc(F)ccc3c2C1`, the IC50 in assay [1] is 32 nM. The EC50 in assay [2] came to 610 nM. Regarding `Oc1nc2c(c3ccccc13)CCNC2`, the IC50 in assay [1] was 30 nM. Moreover, the EC50 in assay [2] turned out to be 45 nM. With `O=C(CN1CCCCC1)N1CCc2nc(O)c3ccccc3c2C1`, the midpoint of the response in assay [2], the EC50, lay at 60 nM. Take `O=c1[nH]c2c(c3ccccc13)CCN(S(=O)(=O)CCN1CCCCC1)C2`: in assay [1], the IC50 amounted to 376 nM. The compound also returned an EC50 in assay [2] of 2790 nM. Consider `O=C(CN1CCCCC1)N1CCc2c(nc(O)c3ccccc23)C1`, for which the response in assay [2] was half-maximal at 260 nM (EC50).

In turn, `Oc1nc2c(c3ccccc13)CNCC2` had an EC50 in assay [2] of 40 nM. Regarding `O=C(CN1CCC(N2CCCC2)CC1)N1CCc2nc(O)c3ccccc3c2C1`, the IC50 in assay [1] stood at 185 nM. The compound also had an EC50 in assay [2] of 850 nM.

For the compound `O=S(=O)(CCN1CCC(N2CCCC2)CC1)N1CCc2c(nc(O)c3ccccc23)C1`, the IC50 in assay [1] was 349 nM. Moreover, the EC50 in assay [2] was determined as 1780 nM.

As for `O=C(CCN1CCC(N2CCCC2)CC1)N1CCc2c(nc(O)c3ccccc23)C1`, in assay [1], the IC50 came out at 243 nM. In the case of `O=C([C@@H]1CCCN1)N1CCc2c(nc(O)c3ccccc23)C1`, the IC50 in assay [1] worked out at 31 nM. Moreover, in assay [2], the midpoint of the response, the EC50, lay at 100 nM. The compound `O=C(CCN1CCCCC1)N1CCc2nc(O)c3ccccc3c2C1` yielded a concentration for a half-maximal effect (EC50) in assay [2] of 58 nM. Consider `Oc1nc2c(c3ccc(F)cc13)CNCC2`, for which the IC50 in assay [1] came out at 20 nM. For the same compound, in assay [2], a half-maximal effect (EC50) was put at 40 nM.

The values are drawn from ChEMBL document CHEMBL1136129, “Design and synthesis of poly(ADP-ribose)polymerase-1 (PARP-1) inhibitors. Part 3: In vitro evaluation of 1,3,4,5-tetrahydro-benzo[c][1,6]- and [c][1,7]-naphthyridin-6-ones” (Bioorg Med Chem Lett, 2003).
